In patent publication US11413360B2, “Dual mode radiotracer and—therapeutics” (priority 2017, dated 2022):
Read-outs that look alike come from different tables or passages of the source.

Assays:
Human Serum Albumin = Human Serum Albumin (Homo sapiens, UniProt P02768); assay: HSA binding on Chiralpak HSA column; format: in vitro ADME
Procedure: The mobile phase (A: NH4OAc, 50 mM in water, pH 7 and B: isopropanol) was freshly prepared for each experiment and only used for one day. The column was kept at room temperature and each run was stopped after detection of the signal to reduce the acquisition time. All substances were dissolved in a 0.5 mg/ml concentration in 50% 2-propanol and 50% 50 mM pH 6.9 ammonium acetate buffer. […] All nine reference substances (see Table 1) were injected consecutively to establish a non-linear regression with OriginPro 2016G; see FIG. 1.

LNCaP cells = assay: Internalization of radiolabelled ligands into LNCaP cells; format: cell-based
Procedure: Subsequent to the removal of the culture medium, the cells were washed once with 500 μL DMEM-F12 (5% BSA) and left to equilibrate for at least 15 min at 37° C. in 200 μL DMEM-F12 (5% BSA). Each well was treated with either 25 μL of either DMEM-F12 (5% BSA) or a 100 μM PMPA solution for blockade. […] The experiment was terminated by placing the 24-well plate on ice for 3 min and consecutive removal of the medium. Each well was rinsed with 250 μL HBSS and the fractions from these first two steps combined, representing the amount of free radioligand. Removal of surface bound activity was accomplished by incubation of the cells with 250 μL of ice-cold PMPA (10 μM in PBS) solution for 5 min and rinsed again with another 250 μL of ice-cold PBS. The internalized activity was determined by incubation of the cells in 250 μL 1 M NaOH and the combination with the fraction of a subsequent wash step with 250 μL 1.0 M NaOH. Each experiment (control and blockade) was performed in triplicate. Free, surface bound and internalized activity was quantified in a γ-counter. […] Data were corrected for non-specific internalization and normalized to the specific-internalization observed for the radioiodinated reference compound.

[1] = system: recurrent prostate cancer; assay: PET/MR with 68Ga-labelled PSMA-SIFA3 (7) in one subject; format: in vivo, human; conditions: 144 MBq, PET/MR 66 min after injection, one subject with biochemical recurrence
Procedure: As a proof on concept investigation of a ^68Ga-labelled SiFA substituted chelator-based PET tracers one subject with biochemical recurrence after radical prostatectomy (PSA 0.44 ng/ml, pT2c, pNO, Gleason 7b) underwent PET/MR 66 min after injection of 144 MBq ^68Ga-labelled PSMA-SIFA3 (7).

PSMA = target: T1, PSMA (Homo sapiens, UniProt Q04609); assay: Determination of PSMA affinity (IC50), competition with ([125I]I-BA)KuE on LNCaP cells; format: binding; conditions: ([125I]I-BA)KuE 0.2 nM, 1 h, 4° C., mean ± SD, read-out: IC50
T1 construct: endogenous in cells; host or cells: LNCaP cells
Procedure: After removal of the culture medium, the cells were treated once with 500 μL of HBSS (Hank's balanced salt solution, Biochrom, Berlin, Germany, with addition of 1% bovine serum albumin (BSA)) and left 15 min on ice for equilibration in 200 μL HBSS (1% BSA). […] Quantification of bound and free radioligand was accomplished in a γ-counter.

[2] = system: prostate cancer tumor lesions; assay: Human PET uptake in and detection of prostate cancer tumor lesions with 18F-labelled PSMA-SIFA3 (7); format: in vivo
From the text: Gluteal muscle served as background.

[3] = in vivo
[4] = Octanol-water partition coefficient (log D) of radiolabelled ligands; format: physicochemical; conditions: n-octanol/PBS, n = 6
Procedure: Approximately 1 MBq of the labelled tracer was dissolved in 1 mL of a 1:1 mixture (by volumes) of phosphate buffered saline (PBS, pH 7.4) and n-octanol in an Eppendorf tube. After vigorous mixing of the suspension for 3 minutes at room temperature, the vial was centrifuged at 15000 g for 3 minutes (Biofuge 15, Heraus Sepatech, Osterode, Germany) and 100 μL aliquots of both layers were measured in a gamma counter. The experiment was repeated at least six times.

[5] = 18F-labelled, of 72 lesions analysed
[6] = 35 lesions with no correlate or small size on morphological imaging, 18F-labelled, human PET
[7] = bone metastases (n=21), 18F-labelled, human PET
[8] = local tumor (n=24), 18F-labelled, human PET
[9] = lymph node metastases (n=23), 18F-labelled, human PET
[10] = tumor lesions, 18F-labelled, human PET, n = 72
[11] = visceral metastases (n=4), 18F-labelled, human PET

T1 sequence (Q04609 whole entry): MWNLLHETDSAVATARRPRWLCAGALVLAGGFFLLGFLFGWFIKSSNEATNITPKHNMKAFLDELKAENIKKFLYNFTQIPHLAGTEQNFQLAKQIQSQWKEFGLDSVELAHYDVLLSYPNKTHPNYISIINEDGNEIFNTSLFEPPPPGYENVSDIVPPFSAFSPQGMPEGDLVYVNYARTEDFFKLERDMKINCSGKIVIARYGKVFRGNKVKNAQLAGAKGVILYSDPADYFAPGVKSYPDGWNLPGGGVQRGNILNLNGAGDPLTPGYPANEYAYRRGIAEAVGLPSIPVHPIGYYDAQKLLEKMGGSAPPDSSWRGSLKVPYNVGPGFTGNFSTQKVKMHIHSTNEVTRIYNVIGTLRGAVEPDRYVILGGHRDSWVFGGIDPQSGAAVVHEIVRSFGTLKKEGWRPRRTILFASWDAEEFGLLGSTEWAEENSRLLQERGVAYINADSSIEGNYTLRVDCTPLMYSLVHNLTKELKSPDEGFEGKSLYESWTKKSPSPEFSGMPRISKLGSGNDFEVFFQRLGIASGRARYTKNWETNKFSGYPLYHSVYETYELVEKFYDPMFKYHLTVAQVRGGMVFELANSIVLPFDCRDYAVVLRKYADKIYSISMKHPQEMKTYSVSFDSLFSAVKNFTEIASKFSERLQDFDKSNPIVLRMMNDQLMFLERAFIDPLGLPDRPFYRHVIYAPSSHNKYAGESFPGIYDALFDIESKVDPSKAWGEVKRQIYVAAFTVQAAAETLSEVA
Human Serum Albumin, sequence (P02768 25-609): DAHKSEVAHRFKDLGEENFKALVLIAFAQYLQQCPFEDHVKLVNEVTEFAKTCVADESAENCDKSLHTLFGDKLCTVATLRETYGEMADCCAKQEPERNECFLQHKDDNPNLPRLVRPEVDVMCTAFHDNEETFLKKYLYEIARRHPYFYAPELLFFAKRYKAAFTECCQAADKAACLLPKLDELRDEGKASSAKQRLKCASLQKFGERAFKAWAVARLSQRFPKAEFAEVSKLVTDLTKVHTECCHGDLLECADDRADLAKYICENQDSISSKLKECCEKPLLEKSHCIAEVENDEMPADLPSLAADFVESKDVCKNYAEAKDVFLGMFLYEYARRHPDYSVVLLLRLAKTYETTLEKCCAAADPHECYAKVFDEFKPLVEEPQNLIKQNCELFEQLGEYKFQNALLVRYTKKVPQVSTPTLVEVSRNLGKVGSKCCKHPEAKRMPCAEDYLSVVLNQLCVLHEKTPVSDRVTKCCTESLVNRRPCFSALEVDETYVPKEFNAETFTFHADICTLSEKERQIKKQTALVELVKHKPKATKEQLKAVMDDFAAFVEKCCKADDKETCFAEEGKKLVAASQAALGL

CC(C)(C)[Si](F)(c1ccc(C(=O)NC[C@@H](NC(=O)CCC(C(=O)O)N2CCN(CC(=O)O)CCN(CC(=O)O)CCN(CC(=O)O)CC2)C(=O)N[C@H](CCCCNC(=O)CCC(=O)NCCC[C@@H](NC(=O)CC[C@H](NC(=O)N[C@@H](CCC(=O)O)C(=O)O)C(=O)O)C(=O)O)C(=O)O)cc1)C(C)(C)C (some centres unmarked) [ligand 7, PSMA-SIFA3]
HSA binding (Human Serum Albumin; natGa-natF-L): 95.7%
HSA binding (Human Serum Albumin; natLu-natF-L): 97.7%
Internalization (LNCaP cells; 18F-L, 0.5 nM, 1 hour, 37° C., % of reference ligand ([125I]I-BA)KuE, mean ± SD): 164.8 ± 4.5%
Internalization (LNCaP cells; 177Lu-natF-L, 0.5 nM, 1 hour, 37° C., % of reference ligand ([125I]I-BA)KuE, mean ± SD): 185.8 ± 4.5%
Internalization (LNCaP cells; 1 h, 0.0005 µM): 126.0 ± 13.1%
uptake in lesion (proof of concept) [1]: Uptake typical for recurrent prostate cancer is demonstrated in a 2 mm lymph node
IC50 (PSMA; natF-L (uncomplexed)): 3.5 ± 0.2 nM
IC50 (PSMA; natGa-natF-L): 3 ± 0.7 nM
IC50 (PSMA; natLu-natF-L): 3.9 ± 0.5 nM
SUVmax max [2]: 25
SUVmean max [2]: 28.3
ratio SUVmax to background max [2]: 43.8
ratio SUVmean to background max [2]: 56.6
patients in whom lesions indicative for prostate cancer were detected ([2]; 18F-labelled, 53 subjects imaged (primary staging n=6, recurrent disease n=47)): 39 patients
lesions with no correlate on morphological imaging [2, 5]: 21 lesions
lesions with size of equal or less than 5 mm on morphological imaging [2, 5]: 14 lesions
uptake in prostate cancer lesions (individual patient images) ([2]; 18F-labelled, single patients, FIG. 26 and FIG. 27): high uptake
SUVmax mean [2, 6]: 16.7
SUVmax min [2, 6]: 9.2
SUVmean mean [2, 6]: 13.3
SUVmean min [2, 6]: 6.4
ratio SUVmax to background mean [2, 6]: 18.3
ratio SUVmax to background min [2, 6]: 5.8
ratio SUVmean to background mean [2, 6]: 22.9
ratio SUVmean to background min [2, 6]: 7.1
SUVmax max [2, 7]: 95.4
SUVmax mean [2, 7]: 31.2
SUVmax min [2, 7]: 7.9
SUVmean max [2, 7]: 71.7
SUVmean mean [2, 7]: 22.2
SUVmean min [2, 7]: 5.3
ratio SUVmax to background max [2, 7]: 73.4
ratio SUVmax to background mean [2, 7]: 32.8
ratio SUVmax to background min [2, 7]: 7.9
ratio SUVmean to background max [2, 7]: 80
ratio SUVmean to background mean [2, 7]: 36.6
ratio SUVmean to background min [2, 7]: 8.8
SUVmax max [2, 8]: 75.1
SUVmax mean [2, 8]: 26.9
SUVmax min [2, 8]: 4
SUVmean max [2, 8]: 19.3
SUVmean mean [2, 8]: 19.3
SUVmean min [2, 8]: 2.7
ratio SUVmax to background max [2, 8]: 83.4
ratio SUVmax to background mean [2, 8]: 29.6
ratio SUVmax to background min [2, 8]: 5
ratio SUVmean to background max [2, 8]: 83.2
ratio SUVmean to background mean [2, 8]: 32.4
ratio SUVmean to background min [2, 8]: 5.4
SUVmax max [2, 9]: 67.5
SUVmax mean [2, 9]: 22.2
SUVmax min [2, 9]: 8.1
SUVmean max [2, 9]: 44.6
SUVmean mean [2, 9]: 16.6
SUVmean min [2, 9]: 6.4
ratio SUVmax to background max [2, 9]: 63.6
ratio SUVmax to background mean [2, 9]: 23.7
ratio SUVmax to background min [2, 9]: 5.8
ratio SUVmean to background max [2, 9]: 70.7
ratio SUVmean to background mean [2, 9]: 27.3
ratio SUVmean to background min [2, 9]: 7.1
SUVmax max [2, 10]: 95.4
SUVmax mean [2, 10]: 26.6
SUVmax min [2, 10]: 4.0
SUVmean max [2, 10]: 71.7
SUVmean mean [2, 10]: 19.2
SUVmean min [2, 10]: 2.7
ratio SUVmax to background max [2, 10]: 83.4
ratio SUVmax to background mean [2, 10]: 28.6
ratio SUVmax to background min [2, 10]: 5.0
ratio SUVmean to background max [2, 10]: 83.2
ratio SUVmean to background mean [2, 10]: 31.9
ratio SUVmean to background min [2, 10]: 5.4
SUVmax max [2, 11]: 32.5
SUVmax mean [2, 11]: 26.1
SUVmax min [2, 11]: 20.4
SUVmean max [2, 11]: 19.1
SUVmean mean [2, 11]: 17.4
SUVmean min [2, 11]: 15.5
ratio SUVmax to background max [2, 11]: 40.6
ratio SUVmax to background mean [2, 11]: 28.9
ratio SUVmax to background min [2, 11]: 18.5
ratio SUVmean to background max [2, 11]: 38.2
ratio SUVmean to background mean [2, 11]: 30.2
ratio SUVmean to background min [2, 11]: 22.1
adverse events / clinically detectable pharmacological effects [3]: No adverse events or clinically detectable pharmacological effects were noted
logD ([4]; pH 7.4, 18F-L): -1.98 ± 0.04
logD ([4]; pH 7.4, 68Ga-natF-L): -3.18 ± 0.05
logD ([4]; pH 7.4, 177Lu-natF-L): -4.2 ± 0.09
